From patent US10801076B2, “Influenza A virus variants” (Vertex Pharmaceuticals Incorporated, priority 2014, dated 2020) come the findings set out here.

Structures are written as SMILES.

The subject of the test is A/Wisconsin/67/2005-p1. Put plainly: microbe, parasite or virus in culture. In kind it is cell-based, influenza A virus (H3N2). The following applies: Influenza A virus, MDCK, 72 h, read-out: Sensitivity to Compound 1 (EC50).

A word on the EC50: it is the concentration that produces a half-maximal response.

For `O=C(O)[C@H]1C2CCC(CC2)[C@@H]1Nc1nc(-c2c[nH]c3ncc(F)cc23)ncc1F` [Compound 1], the EC50 worked out at 2 nM.
